Measurements from paper PMC8539310, “In Vitro Anti-HIV-1 Reverse Transcriptase and Integrase Properties of Punica granatum L. Leaves, Bark, and Peel Extracts and Their Main Compounds” (Plants, 2021).

Assays:
[1] = target: T1, HIV-1 RT-associated RNase H (Human immunodeficiency virus type 1 group M subtype B, UniProt P04585); experiment: RNase H polymerase independent cleavage assay; format: biochemical; conditions: for remaining activity at 100 µM: read-out: Percentage of control RNase H activity in the presence of the indicated drug concentration
T1 construct: HIV-1 group M subtype B heterodimeric RT; made in house
Description: HIV-1 group M subtype B heterodimeric RT was expressed and purified essentially as previously described.
HIV RT-associated RNase H activity was measured as described by Corona et al. 2016 [68] using the RNase H inhibitor RDS1759 as a control. Data analysis of the assay results was performed using GraphPad Prism 9.

[2] = target: T2, HIV-1 IN in the presence of LEDGF/p75 (Human immunodeficiency virus type 1 group M subtype B, UniProt P04585); experiment: HTRF IN LEDGF-dependent assay; format: biochemical; conditions: for remaining activity at 100 µM: read-out: Percentage of control IN LEDGF-dependent activity in the presence of the indicated drug concentration; for Inhibition of HIV-1 IN LEDGF-dependent activity (in words): highest tested concentration; for IC50: pure compounds, in the presence of LEDGF, read-out: HIV-1 Integrase LEDGF-Dependent IC50
T2 construct: Recombinant IN and LEDGF/p75 proteins were expressed and purified; made in house
Description: Recombinant IN and LEDGF/p75 proteins were expressed and purified as described by Esposito et al. 2020 [67].
The IN activity was measured in the presence of LEDGF/p75 cellular cofactor in an HTRF assay. Data analysis of the assay results was performed using GraphPad Prism 9.

[3] = test system: HIV-1 RT, wild-type and mutant; design: method as in PMID 23821410; conditions: wild-type and mutant RTs; cited from earlier work
target cells = conditions: cited from earlier work
[4] = test system: HIV RT DNA polymerase activity; design: method as in Nutan et al. 2013 51; conditions: ref Nutan et al. 2013 51; cited from earlier work
HIV-1 protease = conditions: cited from earlier work
X4-tropic HIV-1 = test system: X4-tropic HIV-1; design: method as in PMID 29480632; conditions: target cells; cited from earlier work
[5] = test system: HIV-1 infection in Jurkat cells; design: method as in PMID 22140483; conditions: cited from earlier work
H9 lymphocytes = test system: H9 lymphocytes; design: method as in PMID 1698933; conditions: cited from earlier work
HIV-1 in H9 lymphocytes = test system: HIV-1 in H9 lymphocytes; design: method as in PMID 1698933; conditions: infected H9 lymphocytes; cited from earlier work

| SMILES | IC50 ([1]; pure compounds) [µM] | remaining activity at 100 µM [2] [%] | Inhibition of HIV-1 IN LEDGF-dependent activity (in words) [2] | IC50 [2] [µM] | also measured |
| --- | --- | --- | --- | --- | --- |
| O=c1cc(-c2ccc(O)cc2)oc2cc(O[C@@H]3O[C@H](CO)[C@@H](O)[C@H](O)[C@H]3O)cc(O)c12 [Apigenin 7-O-glucoside] | > 100 | 100 | totally inactive | > 100 | remaining activity at 100 µM [1]: 100% |
| O=c1cc(-c2ccc(O)cc2)oc2cc(O)cc(O)c12 [Apigenin] | 16.1 ± 0.6 |  |  | 22 ± 3.5 |  |
| C=C(C)[C@@H]1CC[C@]2(C(=O)O)CC[C@]3(C)[C@H](CC[C@@H]4[C@@]5(C)CC[C@H](O)C(C)(C)[C@@H]5CC[C@]43C)[C@@H]12 [Betulinic acid] | 2 ± 0.2 |  | weakly active | 96.5 ± 3.5 | Inhibition of HIV-1 RT-associated functions [3]: inhibited |
| O=c1oc2c(O)c(O)cc3c(=O)oc4c(O)c(O)cc1c4c23 [Ellagic acid] | 1.4 ± 0.11 |  |  | 0.075 ± 0.0005 | Cytotoxicity (target cells): without cytotoxicity; Inhibition of HIV RT (DNA polymerase activity) [4]: inability; Inhibition of HIV-1 protease expression (HIV-1 protease): ability to inhibit; Suppression of replication of X4-tropic HIV-1 (X4-tropic HIV-1): able to suppress |
| O=c1cc(-c2ccc(O[C@@H]3O[C@H](CO)[C@@H](O)[C@H](O)[C@H]3O)c(O)c2)oc2cc(O)cc(O)c12 [Luteolin 4′-O-glucoside] | > 100 | 100 | totally inactive | > 100 | remaining activity at 100 µM [1]: 100% |
| O=c1cc(-c2ccc(O)c(O)c2)oc2cc(O)cc(O)c12 [Luteolin] | 3.7 ± 0.5 |  |  | 6.5 ± 0.5 | Inhibition of HIV-1 infection [5]: capable of inhibiting |
| CC1(C)CC[C@]2(C(=O)O)CC[C@]3(C)C(=CC[C@@H]4[C@@]5(C)CC[C@H](O)C(C)(C)[C@@H]5CC[C@]43C)[C@@H]2C1 [Oleanolic acid] | 6.7 ± 0.4 | 74 | inactive | > 100 | Inhibition of protease expression (HIV-1 protease): inhibit |
| O=C1OC2C(O)OC3COC(=O)c4cc(O)c(O)c(O)c4-c4c(O)c(O)c5oc(=O)c6c(c(O)c(O)c7oc(=O)c4c5c76)-c4c(cc(O)c(O)c4O)C(=O)OC3C2OC(=O)c2cc(O)c(O)c(O)c2-c2c1cc(O)c(O)c2O (stereo not drawn) [Punicalagins, Punicalagin α + β] |  |  |  | 0.065 | Cytotoxicity (H9 lymphocytes): low degree of cytotoxicity; HIV-1 RT-Associated RNase H IC50 ([1]; pure compounds): 0.12 ± 0.00 µM; Inhibition of HIV-1 replication (HIV-1 in H9 lymphocytes): inhibited |
| CCOC(=O)C(=O)CC(=O)/C=C/c1cccn1Cc1ccccc1Cl [RDS1759, reference compound] |  |  |  |  | HIV-1 RT-Associated RNase H IC50 ([1]; reference compound of Table 1, footnote c: expressed in µM): 10.7 ± 0.9^c µM |
| C[C@H]1[C@H](C)CC[C@]2(C(=O)O)CC[C@]3(C)C(=CC[C@@H]4[C@@]5(C)CC[C@H](O)C(C)(C)[C@@H]5CC[C@]43C)[C@H]12 [Ursolic acid] | 5.7 ± 0.1 | 68 | inactive | > 100 | Inhibition of protease expression (HIV-1 protease): inhibit |
